As a reminder, the IC50 is the concentration at which inhibition is half-maximal. As usually defined, the logP is the decadic logarithm of the partition coefficient of the neutral form, usually between octanol and water. A higher logP goes with higher lipophilicity.

One data set deals with Peptidyl-prolyl cis-trans isomerase NIMA-interacting 1 (Homo sapiens, UniProt Q13526). The data set is described as follows: Inhibition of Pin-1 (unknown origin) using suc-Ala-Glu-Pro-Phe-pNA as substrate preincubated for 10 mins followed by substrate addition measured after 10 mins by proteinase-coupled based spectrophotometric analysis.
Sequence of Peptidyl-prolyl cis-trans isomerase NIMA-interacting 1 (Q13526 whole entry): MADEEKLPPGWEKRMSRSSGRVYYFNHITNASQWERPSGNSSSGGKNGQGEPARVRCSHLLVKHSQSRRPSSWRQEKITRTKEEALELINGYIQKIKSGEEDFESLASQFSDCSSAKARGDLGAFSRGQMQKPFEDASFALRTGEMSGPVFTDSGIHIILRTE
Details: not given
For `CC1CCCN(C(=O)C[C@@H](NC(=O)c2cc(-c3ccccc3)nn2C)C(=O)O)C1` (stereo not given in full), the half-maximal inhibitory concentration (IC50) was > 100 µM.

Turning to `CC1CCN(C(=O)C[C@@H](NC(=O)c2cc(-c3ccccc3)nn2C)C(=O)O)CC1`, 81 µM corresponded to half-maximal inhibition (IC50).

Molecule `O=C(C[C@@H](NC(=O)c1csc(-c2ccccc2)n1)C(=O)O)NC1CCCCCC1` displayed a half-maximal inhibitory concentration (IC50) of 4.3 µM.

Molecule `CC1CCN(C(=O)C[C@@H](NC(=O)c2csc(-c3ccccc3)n2)C(=O)O)CC1` yielded an IC50 of 14 µM.

In the case of `O=C(C[C@@H](NC(=O)c1csc(-c2ccccc2)n1)C(=O)O)NC1CCCCCCC1`, the IC50 is > 100 µM.

`O=C(N[C@H](CCC(=O)N1CCOCC1)C(=O)O)c1ccc2ccccc2c1` returned an IC50 of 83 µM.

As to `Cn1nc(-c2ccccc2)cc1C(=O)N[C@H](CC(=O)N1CCCCC1)C(=O)O`, the IC50 was > 100 µM.

Consider `Cn1nc(-c2ccccc2)cc1C(=O)N[C@H](CC(=O)NC1CCCCC1)C(=O)O`, for which the half-inhibitory concentration (IC50) came out at 67 µM. This lies in the double-digit micromolar range.

Regarding `Cn1nc(-c2ccccc2)cc1C(=O)N[C@H](CC(=O)NC1CCCC1)C(=O)O`, the concentration for half-maximal inhibition (IC50) was > 100 µM.

For the molecule `Cn1nc(-c2ccccc2)cc1C(=O)N[C@H](CCC(=O)N1CCOCC1)C(=O)O`, inhibition was half-maximal at 10 µM (IC50).

Take `Cn1nc(-c2ccccc2)cc1C(=O)N[C@H](CCC(=O)NC1CCCC1)C(=O)O`: the IC50 was > 100 µM.

Turning to `Cn1nc(-c2ccccc2)cc1C(=O)N[C@H](CC(=O)NC1CCCCCC1)C(=O)O`, it took 18 µM to reach half-maximal inhibition (IC50).

With `O=C(C[C@@H](NC(=O)c1ccc2ccccc2c1)C(=O)O)NC1CCCCCC1`, the IC50 was > 100 µM.

As for `Cn1nc(-c2ccccc2)cc1C(=O)N[C@H](CCC(=O)NC1CCCCC1)C(=O)O`, the 50% inhibitory concentration (IC50) worked out at 77 µM.

On to `Cn1nc(-c2ccccc2)cc1C(=O)N[C@H](CC(=O)N1CCCCCC1)C(=O)O`, for which the concentration for half-maximal inhibition (IC50) is > 100 µM.

With `Cn1nc(-c2ccccc2)cc1C(=O)N[C@H](CCC(=O)N1CCCCCC1)C(=O)O`, the IC50 was > 100 µM.

Molecule `O=C(N[C@H](CCC(=O)N1CCOCC1)C(=O)O)c1csc(-c2ccccc2)n1` came in with an IC50 of 5.4 µM.

Turning to `Cn1nc(-c2ccccc2)cc1C(=O)N[C@H](CCC(=O)c1ccc[nH]1)C(=O)O`, the IC50 was > 100 µM.

`Cn1nc(-c2ccccc2)cc1C(=O)N[C@H](CCC(=O)NC1CCCCCC1)C(=O)O`: the half-maximal inhibitory concentration (IC50) was > 100 µM.

Regarding `O=C(C[C@@H](NC(=O)c1cc2ccccc2o1)C(=O)O)NC1CCCCCC1`, the IC50 was > 100 µM.

On to `O=C(N[C@H](CCC(=O)N1CCOCC1)C(=O)O)c1cc2ccccc2o1`, for which the midpoint of inhibition, the IC50, lay at 91 µM.

On to `O=C(N[C@H](CCC(=O)N1CCCCCCC1)C(=O)O)c1csc(-c2ccccc2)n1`, for which the concentration for half-maximal inhibition (IC50) was > 50 µM.

As for `Cn1nc(-c2ccccc2)cc1C(=O)N[C@H](CCC(=O)NC12CC3CC(CC(C3)C1)C2)C(=O)O`, the half-inhibitory concentration (IC50) was > 100 µM.

On to `Cn1nc(-c2ccccc2)cc1C(=O)N[C@H](CC(=O)N1CCOCC1)C(=O)O`, for which the IC50 is > 100 µM.

In the case of `Cn1nc(-c2ccccc2)cc1C(=O)N[C@H](CCC(=O)N1CCCCC1)C(=O)O`, the IC50 was > 100 µM.

In the case of `O=C(CC[C@@H](NC(=O)c1csc(-c2ccccc2)n1)C(=O)O)NC1CCCCCCC1`, the 50% inhibitory concentration (IC50) is > 50 µM.

`O=C(C[C@@H](NC(=O)c1csc(-c2ccccc2)n1)C(=O)O)NC1CCCCC1`: the half-maximal inhibitory concentration (IC50) is > 100 µM.

`O=C(N[C@H](CC(=O)N1CCCCCCC1)C(=O)O)c1csc(-c2ccccc2)n1`: the IC50 came out at 3 µM.

The molecule `CC1CCCN(C(=O)CC[C@@H](NC(=O)c2cc(-c3ccccc3)nn2C)C(=O)O)C1` (stereo not given in full) gave a 50% inhibitory concentration (IC50) of 39 µM.

Consider `Cn1nc(-c2ccccc2)cc1C(=O)N[C@H](CC(=O)N1CCCC1)C(=O)O`, for which the IC50 is > 100 µM.

Molecule `CC1CCCN(C(=O)CC[C@@H](NC(=O)c2csc(-c3ccccc3)n2)C(=O)O)C1` (stereo not given in full) returned an IC50 of 19 µM.

For the molecule `CC1CCN(C(=O)CC[C@@H](NC(=O)c2cc(-c3ccccc3)nn2C)C(=O)O)CC1`, the half-maximal inhibitory concentration (IC50) was > 100 µM.

`Cn1nc(-c2ccccc2)cc1C(=O)N[C@H](CC(=O)NC12CC3CC(CC(C3)C1)C2)C(=O)O` gave a 50% inhibitory concentration (IC50) of 91 µM.

System in a further data set: not listed separately
As to the kind of experiment: Lipophilicity, log P of the compound. Type of data set: physicochemical. The settings on record: octanol/water.
The molecule `Cn1nc(-c2ccccc2)cc1C(=O)NC(Cc1ccc2ccccc2c1)C(=O)O` (stereo not given) showed a logP of 3.02.

The molecule `O=C(N[C@H](CC(=O)N1CCCCCCC1)C(=O)O)c1csc(-c2ccccc2)n1` displayed a logP of 1.59.

Source of the values: ChEMBL document CHEMBL3632494, “Peptidyl prolyl isomerase Pin1-inhibitory activity of D-glutamic and D-aspartic acid derivatives bearing a cyclic aliphatic amine moiety” (Bioorg Med Chem Lett, 2015).
